Assay results reported in article PMC5218480 (PLoS ONE, 2017).

System: MV-4-11 cells
Assay: Gene expression microarray analysis (Affymetrix PrimeView) and GSEA
Type: cell-based, human
Parameters: RFU PODN (11730768_x_at) / Fold change /veh PODN (11730768_x_at) / RFU LINC00158 (11744669_a_at) / Fold change /veh LINC00158 (11744669_a_at) / RFU DUSP10 (11751237_a_at) / Fold change /veh DUSP10 (11751237_a_at) / RFU ID3 (11757404_x_at) / Fold change /veh ID3 (11757404_x_at) / RFU PLEKHG5 (11737974_s_at) / Fold change /veh PLEKHG5 (11737974_s_at) / RFU LRRC4B (11730491_at) / Fold change /veh LRRC4B (11730491_at) / RFU GIMAP4 (11747438_a_at) / Fold change /veh GIMAP4 (11747438_a_at) / RFU KRT8 (11758183_x_at) / Fold change /veh KRT8 (11758183_x_at) / RFU CNN1 (11734310_a_at) / Fold change /veh CNN1 (11734310_a_at) / RFU VPS37D (11726825_at) / Fold change /veh VPS37D (11726825_at) / RFU C10orf10 (11716522_x_at) / Fold change /veh C10orf10 (11716522_x_at) / RFU KIR2DL2 /// KIR2DL4 /// KIR2DL5A /// KIR2DL5B /// KIR2DS1 /// KIR2DS2 /// KIR2DS3 /// KIR2DS4 /// KIR3DL3 /// KIR3DL3 /// KIR3DS1 (11738374_at) / Fold change /veh KIR2DL2 /// KIR2DL4 /// KIR2DL5A /// KIR2DL5B /// KIR2DS1 /// KIR2DS2 /// KIR2DS3 /// KIR2DS4 /// KIR3DL3 /// KIR3DL3 /// KIR3DS1 (11738374_at) / RFU C1QL1 (11718748_at) / Fold change /veh C1QL1 (11718748_at) / RFU TMPRSS4 (11747572_a_at) / Fold change /veh TMPRSS4 (11747572_a_at) / RFU HAMP (11756126_x_at) / Fold change /veh HAMP (11756126_x_at) / RFU RNFT2 (11725882_a_at) / Fold change /veh RNFT2 (11725882_a_at) / RFU NR4A2 (11747474_a_at) / Fold change /veh NR4A2 (11747474_a_at) / RFU ABCC12 (11746883_a_at) / Fold change /veh ABCC12 (11746883_a_at) / RFU TMEM136 (11760407_x_at) / Fold change /veh TMEM136 (11760407_x_at) / RFU CLDN22 /// WWC2 (11732394_at) / Fold change /veh CLDN22 /// WWC2 (11732394_at) / RFU HLA-DPB1 (11760878_x_at) / Fold change /veh HLA-DPB1 (11760878_x_at) / RFU SPINT1 (11716480_a_at) / Fold change /veh SPINT1 (11716480_a_at) / RFU GAP43 (11754022_s_at) / Fold change /veh GAP43 (11754022_s_at) / RFU A4GNT (11735810_at) / Fold change /veh A4GNT (11735810_at) / RFU PRB3 (11715151_x_at) / Fold change /veh PRB3 (11715151_x_at) / RFU TUBB4B (11761932_at) / Fold change /veh TUBB4B (11761932_at) / RFU CAPN14 (11732068_a_at) / Fold change /veh CAPN14 (11732068_a_at) / RFU TMCC2 (11721928_a_at) / Fold change /veh TMCC2 (11721928_a_at) / RFU IRGQ (11745062_a_at) / Fold change /veh IRGQ (11745062_a_at) / RFU FAM174B (11720279_a_at) / Fold change /veh FAM174B (11720279_a_at) / RFU TMPRSS4 (11748680_a_at) / Fold change /veh TMPRSS4 (11748680_a_at) / RFU FAM212B (11763350_a_at) / Fold change /veh FAM212B (11763350_a_at) / RFU PLEKHG5 (11743358_a_at) / Fold change /veh PLEKHG5 (11743358_a_at) / RFU ZSCAN30 (11745921_a_at) / Fold change /veh ZSCAN30 (11745921_a_at) / RFU CMKLR1 (11741424_a_at) / Fold change /veh CMKLR1 (11741424_a_at) / RFU LOC101060620 /// MAPK8IP1 (11723275_at) / Fold change /veh LOC101060620 /// MAPK8IP1 (11723275_at) / RFU SPTSSB (11747773_x_at) / Fold change /veh SPTSSB (11747773_x_at) / RFU PRSS12 (11739890_at) / Fold change /veh PRSS12 (11739890_at) / RFU BIN1 (11741810_x_at) / Fold change /veh BIN1 (11741810_x_at) / RFU WNT11 (11732464_a_at) / Fold change /veh WNT11 (11732464_a_at) / RFU C10orf10 (11716521_a_at) / Fold change /veh C10orf10 (11716521_a_at) / RFU C5orf56 (11738089_at) / Fold change /veh C5orf56 (11738089_at) / RFU CYB561 (11721691_x_at) / Fold change /veh CYB561 (11721691_x_at) / RFU ANKRD19P (11752326_a_at) / Fold change /veh ANKRD19P (11752326_a_at) / RFU OR2T12 /// OR2T33 /// OR2T8 (11738714_s_at) / Fold change /veh OR2T12 /// OR2T33 /// OR2T8 (11738714_s_at) / RFU VCAN (11748164_a_at) / Fold change /veh VCAN (11748164_a_at) / RFU JSRP1 (11732532_at) / Fold change /veh JSRP1 (11732532_at) / RFU KRTAP10-11 (11738290_x_at) / Fold change /veh KRTAP10-11 (11738290_x_at) / RFU MYO3A (11730013_a_at) / Fold change /veh MYO3A (11730013_a_at) / RFU EBF3 (11725865_a_at) / Fold change /veh EBF3 (11725865_a_at) / RFU CAMK2N1 (11719241_x_at) / Fold change /veh CAMK2N1 (11719241_x_at) / RFU C5orf56 (11738088_a_at) / Fold change /veh C5orf56 (11738088_a_at) / RFU OLFML3 (11715873_a_at) / Fold change /veh OLFML3 (11715873_a_at) / RFU LOC100653217 /// NTM (11731650_a_at) / Fold change /veh LOC100653217 /// NTM (11731650_a_at) / RFU MAPK11 (11762145_a_at) / Fold change /veh MAPK11 (11762145_a_at) / RFU FIZ1 (11724087_x_at) / Fold change /veh FIZ1 (11724087_x_at) / RFU OASL (11726364_x_at) / Fold change /veh OASL (11726364_x_at) / RFU SOX15 (11748057_x_at) / Fold change /veh SOX15 (11748057_x_at) / RFU CD79A (11719716_a_at) / Fold change /veh CD79A (11719716_a_at) / RFU HIST1H1D (11736915_at) / Fold change /veh HIST1H1D (11736915_at) / RFU CASKIN2 (11723855_a_at) / Fold change /veh CASKIN2 (11723855_a_at) / RFU LOC730098 (11760151_x_at) / Fold change /veh LOC730098 (11760151_x_at) / RFU OR4N2 (11742367_at) / Fold change /veh OR4N2 (11742367_at) / RFU PRRT2 (11749266_a_at) / Fold change /veh PRRT2 (11749266_a_at) / RFU SNX32 (11753110_a_at) / Fold change /veh SNX32 (11753110_a_at) / RFU CDHR5 (11726645_a_at) / Fold change /veh CDHR5 (11726645_a_at) / RFU RCAN1 (11760418_a_at) / Fold change /veh RCAN1 (11760418_a_at) / RFU FAM167A (11723789_a_at) / Fold change /veh FAM167A (11723789_a_at) / RFU FAM26E (11764081_at) / Fold change /veh FAM26E (11764081_at) / RFU ISYNA1 (11749810_s_at) / Fold change /veh ISYNA1 (11749810_s_at) / RFU ACY1 (11761880_at) / Fold change /veh ACY1 (11761880_at) / RFU 11764098_at / Fold change /veh 11764098_at / RFU SAMD14 (11745864_x_at) / Fold change /veh SAMD14 (11745864_x_at) / RFU NPB (11741838_a_at) / Fold change /veh NPB (11741838_a_at) / RFU TMPRSS6 (11731388_a_at) / Fold change /veh TMPRSS6 (11731388_a_at) / RFU KRTAP10-2 (11738614_at) / Fold change /veh KRTAP10-2 (11738614_at) / RFU ARHGAP8 /// PRR5-ARHGAP8 (11727945_x_at) / Fold change /veh ARHGAP8 /// PRR5-ARHGAP8 (11727945_x_at) / RFU KRTAP5-7 /// NADSYN1 (11734609_at) / Fold change /veh KRTAP5-7 /// NADSYN1 (11734609_at) / RFU RASL12 (11751679_a_at) / Fold change /veh RASL12 (11751679_a_at) / RFU CDKN2B (11736163_a_at) / Fold change /veh CDKN2B (11736163_a_at) / RFU PRF1 (11729649_at) / Fold change /veh PRF1 (11729649_at) / RFU, ZNF638 /// ZNF638-IT1 / Fold change vs veh, ZNF638 /// ZNF638-IT1 / RFU, PANK3 / Fold change vs veh, PANK3 / RFU, SH3YL1 / Fold change vs veh, SH3YL1 / RFU, ZEB2 / Fold change vs veh, ZEB2 / RFU, NRIP1 / Fold change vs veh, NRIP1 / RFU, PTTG1IP / Fold change vs veh, PTTG1IP / RFU, CAPN2 / Fold change vs veh, CAPN2 / RFU, MED14 / Fold change vs veh, MED14 / RFU, SNORA58 / Fold change vs veh, SNORA58 / RFU, C1orf63 / Fold change vs veh, C1orf63 / RFU, LRRFIP1 / Fold change vs veh, LRRFIP1 / RFU, NDUFAF7 / Fold change vs veh, NDUFAF7 / RFU, SLC12A2 / Fold change vs veh, SLC12A2 / RFU, IBTK / Fold change vs veh, IBTK / RFU, ESF1 / Fold change vs veh, ESF1 / Fold change vs veh, TMEM50B / RFU, TAOK1 / Fold change vs veh, TAOK1 / RFU, ACBD3 / Fold change vs veh, ACBD3 / RFU, TMA16 / Fold change vs veh, TMA16 / RFU, RWDD3 / Fold change vs veh, RWDD3 / RFU, BCAT1 / Fold change vs veh, BCAT1 / RFU, EDEM3 / Fold change vs veh, EDEM3 / RFU, TMEM33 / Fold change vs veh, TMEM33 / RFU, WDR75 / Fold change vs veh, WDR75 / RFU, AHCTF1 / Fold change vs veh, AHCTF1 / RFU, TFRC / Fold change vs veh, TFRC / RFU, ZDHHC17 / Fold change vs veh, ZDHHC17 / RFU, NOM1 / Fold change vs veh, NOM1 / RFU, ARL8B / Fold change vs veh, ARL8B / RFU, ZBTB11 / Fold change vs veh, ZBTB11 / RFU, TAMM41 / Fold change vs veh, TAMM41 / RFU, KIAA1704 /// LOC100996395 / Fold change vs veh, KIAA1704 /// LOC100996395 / RFU, ING1 / Fold change vs veh, ING1 / RFU, TRMT61B / Fold change vs veh, TRMT61B / RFU, FUBP3 / Fold change vs veh, FUBP3 / RFU, TP53 / Fold change vs veh, TP53 / RFU, TNKS2 / Fold change vs veh, TNKS2 / RFU, ZFP14 / Fold change vs veh, ZFP14 / RFU, ACTR2 / Fold change vs veh, ACTR2 / RFU, PPP3R1 / Fold change vs veh, PPP3R1 / RFU, PIK3R1 / Fold change vs veh, PIK3R1 / RFU, HNRNPA1 / Fold change vs veh, HNRNPA1 / RFU, RNF170 / Fold change vs veh, RNF170 / RFU, ZNF28 / Fold change vs veh, ZNF28 / RFU, RNGTT / Fold change vs veh, RNGTT / RFU, OGT / Fold change vs veh, OGT / RFU, BRD1 / Fold change vs veh, BRD1 / RFU, MARS / Fold change vs veh, MARS / RFU, ZNF655 / Fold change vs veh, ZNF655 / RFU, FAHD1 / Fold change vs veh, FAHD1 / RFU, BDP1 / Fold change vs veh, BDP1 / RFU, LRRCC1 / Fold change vs veh, LRRCC1 / RFU, ARID1A / Fold change vs veh, ARID1A / RFU, ZNF146 / Fold change vs veh, ZNF146 / RFU, ZNF330 / Fold change vs veh, ZNF330 / RFU, GPN3 / Fold change vs veh, GPN3 / RFU, C9orf123 / Fold change vs veh, C9orf123 / RFU, N4BP2L2 / Fold change vs veh, N4BP2L2 / RFU, ARFIP1 / Fold change vs veh, ARFIP1 / RFU, FAM179B / Fold change vs veh, FAM179B / RFU, BCL10 / Fold change vs veh, BCL10 / RFU, UHRF1BP1L / Fold change vs veh, UHRF1BP1L / RFU, BET1 / Fold change vs veh, BET1 / RFU, CNOT2 / Fold change vs veh, CNOT2 / RFU, ZNF268 / Fold change vs veh, ZNF268 / Fold change vs veh, ZNF507 / RFU, DGCR2 / Fold change vs veh, DGCR2 / RFU, WDSUB1 / Fold change vs veh, WDSUB1 / Fold change vs veh, HSP90B1 /// MIR3652 / RFU, ADSS / Fold change vs veh, ADSS / RFU, GK / Fold change vs veh, GK / RFU, ZNF148 / Fold change vs veh, ZNF148 / RFU, TAF9 / Fold change vs veh, TAF9 / RFU, SLC1A5 / Fold change vs veh, SLC1A5 / RFU, SLMO2 / Fold change vs veh, SLMO2 / RFU, ABCC4 / Fold change vs veh, ABCC4 / RFU, LOC101060439 /// RAP1B / Fold change vs veh, LOC101060439 /// RAP1B / RFU, RFX7 / Fold change vs veh, RFX7 / RFU, GTPBP10 / Fold change vs veh, GTPBP10 / RFU, CNEP1R1 / Fold change vs veh, CNEP1R1 / RFU, BIVM-ERCC5 /// ERCC5 / Fold change vs veh, BIVM-ERCC5 /// ERCC5 / RFU, ILF3 / Fold change vs veh, ILF3 / RFU 11762660_at / Fold change /veh 11762660_at / RFU VCAN (11757783_s_at) / Fold change /veh VCAN (11757783_s_at) / RFU DDX43 (11728927_at) / Fold change /veh DDX43 (11728927_at) / RFU KRT8 (11758188_x_at) / Fold change /veh KRT8 (11758188_x_at) / RFU NKD1 (11759106_at) / Fold change /veh NKD1 (11759106_at) / RFU SRD5A1 (11742802_a_at) / Fold change /veh SRD5A1 (11742802_a_at) / RFU TPSAB1 /// TPSB2 (11721975_s_at) / Fold change /veh TPSAB1 /// TPSB2 (11721975_s_at) / RFU GSTM3 (11746129_a_at) / Fold change /veh GSTM3 (11746129_a_at) / RFU IL23R (11737362_x_at) / Fold change /veh IL23R (11737362_x_at) / RFU TMEM51 (11727254_a_at) / Fold change /veh TMEM51 (11727254_a_at) / RFU PIWIL2 (11732686_x_at) / Fold change /veh PIWIL2 (11732686_x_at) / RFU ORM1 (11744905_x_at) / Fold change /veh ORM1 (11744905_x_at) / RFU CCDC152 (11743942_at) / Fold change /veh CCDC152 (11743942_at) / RFU ECM1 (11717891_a_at) / Fold change /veh ECM1 (11717891_a_at) / RFU IL23R (11748794_a_at) / Fold change /veh IL23R (11748794_a_at) / RFU TNFAIP8L3 (11732012_x_at) / Fold change /veh TNFAIP8L3 (11732012_x_at) / RFU MBOAT4 (11741988_at) / Fold change /veh MBOAT4 (11741988_at) / RFU 11764193_at / Fold change /veh 11764193_at / RFU TMEM53 (11763286_at) / Fold change /veh TMEM53 (11763286_at) / RFU MAGEB2 (11727129_at) / Fold change /veh MAGEB2 (11727129_at) / RFU TMEM200A (11744735_a_at) / Fold change /veh TMEM200A (11744735_a_at) / RFU CCDC152 (11751479_a_at) / Fold change /veh CCDC152 (11751479_a_at) / RFU FAM211A (11726209_a_at) / Fold change /veh FAM211A (11726209_a_at) / RFU RGS16 (11746705_a_at) / Fold change /veh RGS16 (11746705_a_at) / RFU VCAN (11755009_s_at) / Fold change /veh VCAN (11755009_s_at) / RFU RHOB (11743442_s_at) / Fold change /veh RHOB (11743442_s_at) / RFU RGS16 (11720943_a_at) / Fold change /veh RGS16 (11720943_a_at) / RFU RGS16 (11720944_at) / Fold change /veh RGS16 (11720944_at) / RFU, VPS4B / Fold change vs veh, VPS4B / RFU, CREB1 / Fold change vs veh, CREB1 / RFU, DNAJC13 / Fold change vs veh, DNAJC13 / RFU, GNAQ / Fold change vs veh, GNAQ / RFU, CDK5R1 / Fold change vs veh, CDK5R1 / RFU, ZRANB3 / Fold change vs veh, ZRANB3 / RFU, CUL4A / Fold change vs veh, CUL4A / RFU, CCNY / Fold change vs veh, CCNY / RFU, UFL1 / Fold change vs veh, UFL1 / RFU, COG3 / Fold change vs veh, COG3 / RFU, DIAPH2 / Fold change vs veh, DIAPH2 / RFU, SKA2 / Fold change vs veh, SKA2 / RFU, AFF3 / Fold change vs veh, AFF3 / RFU, LMF1 / Fold change vs veh, LMF1 / RFU, IPO11 / Fold change vs veh, IPO11 / RFU, DFFB / Fold change vs veh, DFFB / RFU, FOXP1 / Fold change vs veh, FOXP1 / RFU, CARD8 / Fold change vs veh, CARD8 / RFU, STRN3 / Fold change vs veh, STRN3 / RFU, ADK / Fold change vs veh, ADK / RFU, RASSF2 / Fold change vs veh, RASSF2 / RFU, WIPF1 / Fold change vs veh, WIPF1 / RFU, LARP1B / Fold change vs veh, LARP1B / RFU, RASA1 / Fold change vs veh, RASA1 / RFU, RB1 / Fold change vs veh, RB1 / RFU, PPFIA1 / Fold change vs veh, PPFIA1 / RFU, MAT2A / Fold change vs veh, MAT2A / RFU, CCT5 / Fold change vs veh, CCT5 / RFU, WDR92 / Fold change vs veh, WDR92 / RFU, CUX1 / Fold change vs veh, CUX1 / RFU, TTC7A / Fold change vs veh, TTC7A / RFU, TMEM135 / Fold change vs veh, TMEM135 / RFU, DEPTOR / Fold change vs veh, DEPTOR / RFU, CPM / Fold change vs veh, CPM / RFU, DNAJB6 / Fold change vs veh, DNAJB6 / RFU, CACNA2D3 / Fold change vs veh, CACNA2D3 / RFU, DTX4 / Fold change vs veh, DTX4 / RFU, TFCP2 / Fold change vs veh, TFCP2 / RFU, GMCL1 /// GMCL1P1 / Fold change vs veh, GMCL1 /// GMCL1P1 / RFU, AEBP2 / Fold change vs veh, AEBP2 / RFU, SNHG1 /// SNORD22 /// SNORD25 /// SNORD26 /// SNORD27 /// SNORD28 /// SNORD29 /// SNORD31 / Fold change vs veh, SNHG1 /// SNORD22 /// SNORD25 /// SNORD26 /// SNORD27 /// SNORD28 /// SNORD29 /// SNORD31 / Fold change (Aza/veh), C12orf56 (ProbeSet 11735607_a_at) / Fold change (ACY-1035/veh), C12orf56 (ProbeSet 11735607_a_at) / Fold change (Aza/veh), FGFR1OP (ProbeSet 11751329_s_at) / Fold change (ACY-1035/veh), FGFR1OP (ProbeSet 11751329_s_at) / Fold change (Aza/veh), VPS36 (ProbeSet 11739960_a_at) / Fold change (ACY-1035/veh), VPS36 (ProbeSet 11739960_a_at) / RFU SYPL1 (11715823_x_at) / Fold change /veh SYPL1 (11715823_x_at) / RFU IGFBP7 (11715501_s_at) / Fold change /veh IGFBP7 (11715501_s_at) / RFU REEP3 (11722064_at) / Fold change /veh REEP3 (11722064_at) / RFU IGLL1 (11728026_x_at) / Fold change /veh IGLL1 (11728026_x_at): dose or concentration left out as unconfirmed
Settings: MV-4-11 cells, 48 hours

Nc1ncn([C@@H]2O[C@H](CO)[C@@H](O)[C@H]2O)c(=O)n1 [azacitidine]
RFU ANKRD19P (11752326_a_at): 6.34 RFU
